Drawing on patent US9649313B2, “Use of ITK inhibitors for the treatment of cancer” (The University of North Carolina at Chapel Hill, priority 2012, dated 2017), this text covers IC50 for one compound.

Structures are written as SMILES.

In this test the target is T1, MST1 (Homo sapiens, UniProt Q13043).
T1 construct: purchased Carna Biosciences
T1 sequence (Q13043 1-487): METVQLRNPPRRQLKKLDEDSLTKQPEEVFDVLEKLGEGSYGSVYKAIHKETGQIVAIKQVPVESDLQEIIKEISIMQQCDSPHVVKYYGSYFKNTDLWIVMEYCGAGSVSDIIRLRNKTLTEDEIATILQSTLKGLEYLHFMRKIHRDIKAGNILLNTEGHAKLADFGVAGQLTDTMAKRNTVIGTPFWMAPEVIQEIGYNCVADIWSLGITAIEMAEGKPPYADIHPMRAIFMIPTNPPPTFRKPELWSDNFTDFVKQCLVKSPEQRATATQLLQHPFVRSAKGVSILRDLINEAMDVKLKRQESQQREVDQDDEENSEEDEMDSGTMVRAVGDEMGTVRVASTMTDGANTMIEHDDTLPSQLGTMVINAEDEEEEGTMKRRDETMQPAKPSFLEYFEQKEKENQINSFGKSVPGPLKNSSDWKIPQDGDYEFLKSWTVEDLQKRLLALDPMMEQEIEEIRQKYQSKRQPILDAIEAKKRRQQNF
In words: cell-free kinase assay. Type of test: biochemical. The text has this: We investigated the potency and selectivity of BI 10N against 56 kinases using a cell-free assay (Table 8A).
The selectivity of this inhibitor was investigated by testing the potency of the inhibitor at two concentrations with 53 kinases by Carna Biosciences (MA) (Table 2).

What is called IC50 is the concentration needed to halve the response being measured. Lower therefore signals greater potency in that assay.

On to `C[C@]12O[C@H](C[C@]1(O)C(=O)O)n1c3ccccc3c3c4c(c5c6ccccc6n2c5c31)CNC4=O` [K252b], for which the half-maximal inhibitory concentration (IC50) is, setting by setting: (ATP concentration at approximately the Km for ATP) 3.43 nM; (Table 2, by Carna Biosciences) 3.43 nM.
